Experimental data from patent US20120316158A1, “OPHTHALMIC SOLUTION FOR TREATING OCULAR INFECTION COMPRISING LEVOFLOXACIN OR SALT THEREOF OR SOLVATE OF THE SAME, METHOD FOR TREATING OCULAR INFECTION, LEVOFLOXACIN OR SALT THEREOF OR SOLVATE OF THE SAME, AND USE THEREOF” (priority 2010, published 2012).

What was measured:
MSSA = assay: MIC of clinical isolate from a patient suffering from an external ocular infection; assay type: cell-based; details: Staphylococcus aureus; MSSA clinical isolate from a patient with an external ocular infection
Procedure: MSSA (MIC=0.5 μg/mL with respect to levofloxacin) was isolated from a patient suffering from an external ocular infection.

[1] = tested on: methicillin-sensitive Staphylococcus aureus; details: isolates from a patient suffering from bacterial keratitis; cited from earlier work

- MIC (MSSA): 0.5 µg/mL
SMILES: C[C@H]1COc2c(N3CCN(C)CC3)c(F)cc3c(=O)c(C(=O)O)cn1c23 [levofloxacin, Levofloxacin]
- clinically isolated MSSA resistant to levofloxacin [1]: about 10%
